Results from paper PMC11763264, “Antibacterial and Antifungal Activities of Linear and Cyclic Peptides Containing Arginine, Tryptophan, and Diphenylalanine” (Antibiotics, 2025).
≈ marks a conversion by molar mass, not a printed value. Where “and” joins values, the source holds several entries; their conditions need not be identical. Equal entries are not always repeated. Non-standard residues stand in square brackets, D forms with d. Residues, ends and D or L forms follow the SMILES beside them. Dip = N[C@H](C(=O)O)C(c1ccccc1)c1ccccc1

Tests used:
[1] = system: P. aeruginosa (ATCC 27883); test: microbe, parasite or virus in culture; assay type: cell-based, Pseudomonas aeruginosa; details: ATCC 27883, 24 h
Description: The antibacterial activity of all ten synthesized linear and cyclic peptides was evaluated against MRSA (ATCC BAA-1556), S. aureus (ATCC 29213), E. faecium (ATCC 700221), S. pneumoniae (ATCC 51938), E. faecalis (ATCC 29212), B. subtilis (ATCC-6633), K. pneumoniae (ATCC BAA-1705), P. aeruginosa (ATCC 27883), and E. coli (ATCC 25922). Meropenem and daptomycin were used as positive controls for this study. Certain peptides are marked as “NT” (not tested) against specific bacterial strains based on initial screening data. […] The MIC was determined by micro-broth dilution protocol, where the minimal concentrations were determined to be in wells with no visible bacterial growth.
All bacterial experiments were carried out in a laminar flow hood (Labconco, Kansas City, MO, USA). The bacterial strains were cultured following the guidelines set by the Clinical Laboratory Standards Institute (CLSI). Antibacterial assays were performed using a standard microtiter dilution method as described in previous studies. The minimum inhibitory concentration (MIC) refers to the lowest peptide concentration that inhibits bacterial growth in wells with no visible bacterial growth. MIC was determined by micro-broth dilution. Bacteria were cultured overnight in 6 mL of Luria Broth (LB). A stock solution of the peptide was prepared in water and DMSO, and a test compound solution with a concentration of 256 µg/mL was made in LB. Meropenem, with a solubility of 8 mg/mL, was prepared as a stock solution at 4 mg/500 µL. An aliquot of the overnight bacteria culture was diluted in normal saline (NS, 1 mL) until achieving a 0.5 McFarland turbidity (1.5 × 10^8 bacterial cell CFU/mL). A 0.5 McFarland compared solution (60 µL) was added to Mueller Hinton Broth (MH) 8940 µL to generate a 1/150 dilution. A 200 µL test compound solution was added to the first well of a 96-well plate, and the remaining wells (2–12) were filled with 100 µL of MH media using a multi-channel pipette from a sterile reservoir. A concentration of […] of the tested peptides was prepared from a stock solution of the samples for testing in Muller−Hinton broth MH media. Peptides stock solution was dissolved in 5% DMSO in water, and the final concentration of DMSO in the first well of assay plate was 2.5% DMSO/H2O and diluted across the assay plate.
A 100 µL sample from well 1 was pipetted into well 2, and the solution was mixed thoroughly by pipetting up and down. Next, 100 µL was transferred from well 2 to well 3, followed by thorough mixing. This 2-fold serial dilution process continued through well 11, with no additions made to well 12. The final 100 µL from well 11 was discarded. After completing the serial dilution, each well (1–12) contained 100 µL of solution. The bacterial culture in MH media was vortexed and transferred to a sterile reservoir, from which 100 µL was added to each well using a 12-channel pipette. (Note: The dilutions were further diluted upon adding the bacterial solution; for example, the concentration in well 1 started at […] after the addition of the bacterial culture.) The plates were incubated overnight at 37 °C for 24 h. All experiments were performed in triplicate and repeated twice, with controls consisting of bacteria in MH media and positive controls of daptomycin or meropenem.

[2] = system: C. parapsilosis and A. fumigatus; assay type: cell-based; details: span over the two fungi
Description: The antifungal activity of all ten synthesized linear and cyclic peptides was evaluated against C. albicans (ATCC 60193), C. parapsilosis (ATCC 22019), and A. fumigatus (AF-293). Fluconazole and amphotericin B were used as positive controls for this study. The MIC was determined at concentrations in wells with no visible fungal growth.
A. fumigatus (Af-293) was cultured on Sabouraud dextrose agar (SDA) (Lot #3431660, Oxoid) for 48–72 h at 35 °C to obtain fresh and mature colonies which reached the proper sporulation then used to prepare the inoculum. The colonies were covered with Phosphate-Buffered Saline (PBS) containing 0.025% Tween-20, scraped from the plate, and carefully collected into a sterile tube. The suspension was centrifuged at 3000 RPM for 5 min after the separation between conidia and hyphae. […]
Peptide concentrations of 50, 25, 12.5, 6.25, and 3.1 μg/mL were tested in triplicate. […] Fungal growth was visualized, and the minimum inhibitory concentration (MIC) was determined as the lowest peptide concentration, where no growth was observed. […]
Peptide concentrations of 50, 25, 12.5, 6.25, and 3.1 μg/mL were tested in triplicate and repeated twice. […] Fungal and microbial growth were visually observed in the control wells, and the minimum inhibitory concentration (MIC) was determined as the lowest concentration at which no growth was detected in the wells. […]

LLC-PK1 cells = details: cited from earlier work
Text: (§1) We have previously reported in vitro cytotoxicity of the synthesized peptides in a range of mammalian cell lines, including human ovarian adenocarcinoma cells (SK-OV-3), human peripheral blood lymphoblast cells (CCRF-CEM), healthy human embryonic kidney cells (HEK-293), human mammary adenocarcinoma cells (MDA-MB-468), normal pig kidney epithelial cells (LLC-PK1), and human uterine sarcoma fibroblast cells (MES-SA).

MDA-MB-468 cells = details: cited from earlier work
Text: as §1

MES-SA cells = details: cited from earlier work
Text: as §1

Question: For `N=C(N)NCCC[C@@H]1NC(=O)[C@H](C(c2ccccc2)c2ccccc2)NC(=O)[C@H](CCCNC(=N)N)NC(=O)[C@H](C(c2ccccc2)c2ccccc2)NC(=O)[C@H](CCCNC(=N)N)NC(=O)[C@H](C(c2ccccc2)c2ccccc2)NC(=O)[C@H](CCCNC(=N)N)NC(=O)[C@H](C(c2ccccc2)c2ccccc2)NC(=O)[C@H](CCCNC(=N)N)NC(=O)[C@H](C(c2ccccc2)c2ccccc2)NC1=O` [[DipR]5] (cyclo([Dip]R[Dip]R[Dip]R[Dip]R[Dip]R)), which MIC [1] is on record?
Answer: 25 µM (≈ 47.4 µg/mL)

Question: What about the “MIC values against C. parapsilosis and A. fumigatus” value [2] of the same molecule?
Answer: 1.6–6.6 µM and 3.0–12.5 µg/mL

Question: What about the “cytotoxicity against LLC-PK1 cells” value (LLC-PK1 cells) of the same molecule?
Answer: reduced cytotoxicity

Question: And the “cytotoxicity against MDA-MB-468 cells” value (MDA-MB-468 cells)?
Answer: reduced cytotoxicity

Question: And the “cytotoxicity against MES-SA cells” value (MES-SA cells)?
Answer: moderate effects
